In patent publication US10656142B2, “Measuring antiplatelet activity” (Melaleuca, Inc., priority 2014, dated 2020):

Tested on: platelets
Experiment: Rate of platelet superoxide production during oscillatory shear stress (EPR with CAT1H spin probe) in platelet rich plasma, before and after supplementation
Type: in vivo, Human
Settings: 24 healthy volunteers; measured before and 10 hours after supplementation; Provex CV single or double daily dose, aspirin 325 mg; randomized, single-blind, cross-over study
Description: Human venous blood was collected via a low-pressure protocol. A manual blood pressure cuff was applied to the arm with a maximum pressure of 40 mmHg. The first sodium citrate vacutainer (75 USP Units, 4 mL) was discarded, and three more were then filled. Blood was centrifuged at 100 g for 19 minutes with no active braking mechanism. Centrifuged blood was then allowed to sit for 20 to 30 minutes. […] An initial 30 μL sample was taken via glass capillary tube for a baseline reading. The SSC was started, and an initial, 5 point kinetic sample was measured. […]
Amplitude readings were recalculated into μM, and a graph depicting μM/min was prepared. […]
24 healthy volunteers were supplemented with the test composition (Provex CV®) at two different dosages (single or double daily dose) or aspirin (325 mg) in a randomized, single-blind, cross-over study. The rate of superoxide production during shear stress was measured before and 10 hours after supplementation.

## CC(=O)Oc1ccccc1C(=O)O [aspirin]
  inhibition of platelet activation (rate of superoxide production during shear stress): no effect observed
